Results reported in patent US20260347373A1, “HETEROCYCLIC COMPOUNDS, COMPOSITIONS THEREOF, AND METHODS OF TREATMENT THEREWITH” (BeOne Medicines I GmbH, priority 2023, published 2026).
Structures can show the parent of a compound that is named as a salt. Where two headings read alike, the source gives them in different places.

Experiments:
WT KRAS = WT KRAS (Homo sapiens, UniProt P01116); test: KRAS WT Probe Displacement Assay (TR-FRET, GDP-loaded); type: binding
Text: (§1) The synthetic routes of probe 1 and 2, which have been disclosed in PCT/CN2022/070676, are hereby incorporated herein.

KRAS G12D = KRAS G12D (Homo sapiens, UniProt P01116, G12D); test: KRAS G12D Probe Displacement Assay (TR-FRET, GDP-loaded); type: binding
Sequence of KRAS G12D (P01116 1-188 isoform P01116-2 G12D): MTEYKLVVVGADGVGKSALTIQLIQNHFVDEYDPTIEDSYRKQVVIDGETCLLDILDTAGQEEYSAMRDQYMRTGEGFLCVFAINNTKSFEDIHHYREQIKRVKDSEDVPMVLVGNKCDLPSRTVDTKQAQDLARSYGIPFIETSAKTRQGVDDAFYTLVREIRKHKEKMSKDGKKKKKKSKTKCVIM
Text: as §1

[1] = KRAS^WT Probe Displacement Assay IC50, KRAS WT
[2] = KRAS^G12D Probe Displacement Assay IC50, KRAS G12D
[3] = KRAS WT, read-out: KRAS^WT Probe Displacement Assay IC50
[4] = KRAS G12D, read-out: KRAS^G12D Probe Displacement Assay IC50

Sequence of WT KRAS (P01116 1-188 isoform P01116-2): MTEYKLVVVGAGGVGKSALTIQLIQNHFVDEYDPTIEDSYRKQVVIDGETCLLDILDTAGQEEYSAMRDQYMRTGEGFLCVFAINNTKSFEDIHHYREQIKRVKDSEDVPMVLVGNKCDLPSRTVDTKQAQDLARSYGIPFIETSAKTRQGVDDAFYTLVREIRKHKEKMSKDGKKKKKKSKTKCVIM

Structure (SMILES)	IC50 (WT KRAS; [1])	IC50 (KRAS G12D; [2])	IC50 (WT KRAS; [3])	IC50 (KRAS G12D; [4])
COC1CN(CC2(COc3nc4c5c(nc(-c6cc(N)cc(C)c6C(F)(F)F)c(F)c5n3)OCC[C@@H]3[C@@H]5CC[C@H](CN43)N5)CC2(F)F)C1 (single isomer, unassigned) [Example 20]	3 to 1000 nM	< 0.3 nM	–	–
Cc1cc(N)cc(-c2nc3c4c(nc(OCC5(CN6C[C@@H](C)O[C@@H](C)C6)CC5(F)F)nc4c2F)N2C[C@H]4CC[C@H](N4)[C@H]2CCO3)c1C(F)(F)F (single isomer, unassigned) [Example 22]	–	–	3 to 1000 nM	< 0.3 nM
Cc1cc(N)cc(-c2nc3c4c(nc(OCC5(CN6CC(C)OC(C)C6)CC5(F)F)nc4c2F)N2C[C@H]4CC[C@H](N4)[C@H]2CCO3)c1C(F)(F)F (single isomer, unassigned) [Example 24]	–	–	3 to 1000 nM	0.3 to 3 nM
Cc1cc(N)cc(-c2nc3c4c(nc(OCC5(CN6C[C@H](C)O[C@@H](C)C6)CC5(F)F)nc4c2F)N2C[C@H]4CC[C@H](N4)[C@H]2CCO3)c1C(F)(F)F (single isomer, unassigned) [Example 26]	–	–	3 to 1000 nM	0.3 to 3 nM
Cc1cc(N)cc(-c2nc3c4c(nc(OCC5(CN6CC7CC7C6)CC5(F)F)nc4c2F)N2C[C@H]4CC[C@H](N4)[C@H]2CCO3)c1C(F)(F)F (single isomer, unassigned) [Example 28]	–	–	3 to 1000 nM	< 0.3 nM
Cc1cc(N)cc(-c2nc3c4c(nc(OCC5(C)COCC5N(C)C)nc4c2F)N2C[C@H]4CC[C@H](N4)[C@H]2CCO3)c1C(F)(F)F (single isomer, unassigned) [Example 42]	–	–	3 to 1000 nM	0.3 to 3 nM
CN(C)CC1(COc2nc3c4c(nc(-c5cc(N)cc(Cl)c5C(F)(F)F)c(F)c4n2)OCC[C@@H]2[C@@H]4CC[C@H](CN32)N4)CC1F (single isomer, unassigned) [Example 52]	–	–	0.3 to 3 nM	< 0.3 nM
Cc1cc(N)cc(-c2nc3c4c(nc(OCC5(CN6CCC6)CC5(F)F)nc4c2F)N2C[C@H]4CC[C@H](N4)[C@H]2CCO3)c1C(F)(F)F (single isomer, unassigned) [Example 57]	–	–	3 to 1000 nM	0.3 to 3 nM
Cc1cc(N)cc(-c2nc3c4c(nc(OCC5(C(C)N(C)C)CC5(F)F)nc4c2F)N2C[C@H]4CC[C@H](N4)[C@H]2CCO3)c1C(F)(F)F (single isomer, unassigned) [Example 59]	–	–	3 to 1000 nM	< 0.3 nM
CO[C@H]1CCN(C)[C@@H]1C(C)Oc1nc2c3c(nc(-c4cc(N)cc(C)c4C(F)(F)F)c(F)c3n1)OCC[C@@H]1[C@@H]3CC[C@H](CN21)N3 (single isomer, unassigned) [Example 75]	–	–	3 to 1000 nM	< 0.3 nM
Cc1cc(N)cc(-c2nc3c4c(nc(OCC5(CN6CCCC6CO)CC5)nc4c2F)N2C[C@H]4CC[C@H](N4)[C@H]2CCO3)c1C(F)(F)F (single isomer, unassigned) [Example 124]	–	–	3 to 1000 nM	0.3 to 3 nM
Cc1cc(N)cc(-c2nc3c4c(nc(OCC5(C6CCCN6C)CC5)nc4c2F)N2C[C@H]4CC[C@H](N4)[C@H]2CCO3)c1C(F)(F)F (single isomer, unassigned) [Example 133]	–	–	3 to 1000 nM	< 0.3 nM
Cc1cc(N)cc(-c2nc3c4c(nc(OCC5(CN(C)C)CC5F)nc4c2F)N2C[C@H]4CC[C@H](N4)[C@H]2CCO3)c1C(F)(F)F (single isomer, unassigned) [Example 136]	3 to 1000 nM	< 0.3 nM	–	–
Cc1cc(N)cc(-c2nc3c4c(nc(OCC5(CN6CCC7(C6)CC7(F)F)CC5)nc4c2F)N2C[C@H]4CC[C@H](N4)[C@H]2CCO3)c1C(F)(F)F (single isomer, unassigned) [Example 138]	–	–	0.3 to 3 nM	< 0.3 nM
CO[C@@H]1C[C@@H](C(C)Oc2nc3c4c(nc(-c5cc(N)cc(C)c5C(F)(F)F)c(F)c4n2)OCC[C@@H]2[C@@H]4CC[C@H](CN32)N4)N(C)C1 (single isomer, unassigned) [Example 144]	–	–	3 to 1000 nM	< 0.3 nM
COC1CN(CC2(COc3nc4c5c(nc(-c6cc(N)cc(C)c6C(F)(F)F)c(F)c5n3)OCC[C@@H]3[C@@H]5CC[C@H](CN43)N5)CC2)CC1F (single isomer, unassigned) [Example 186]	–	–	3 to 1000 nM	< 0.3 nM
Cc1cc(N)cc(-c2nc3c4c(nc(OCC56C=CCN5C[C@H](F)C6)nc4c2F)N2C[C@H]4CC[C@H](N4)[C@H]2CCO3)c1C(F)(F)F (single isomer, unassigned) [Example 204]	–	–	3 to 1000 nM	< 0.3 nM

Structure (SMILES)	IC50 (WT KRAS; [1])	IC50 (KRAS G12D; [2])	IC50 (WT KRAS; [3])	IC50 (KRAS G12D; [4])
Cc1cc(N)cc(-c2nc3c4c(nc(O[C@@H](C)[C@@H]5CC6(CN5C)CC6(F)F)nc4c2F)N2C[C@H]4CC[C@H](N4)[C@H]2CCO3)c1C(F)(F)F (single isomer, unassigned) [Example 224]	–	–	3 to 1000 nM	< 0.3 nM
Cc1cc(N)cc(-c2nc3c4c(nc(O[C@@H](C)[C@@H]5CCCN5C5CCOC5)nc4c2F)N2C[C@H]4CC[C@H](N4)[C@H]2CCO3)c1C(F)(F)F (single isomer, unassigned) [Example 228]	–	–	3 to 1000 nM	< 0.3 nM
Cc1cc(N)cc(-c2nc3c4c(nc(OCC5(C)CC(F)CN(C6CCOCC6)C5)nc4c2F)N2C[C@H]4CC[C@H](N4)[C@H]2CCO3)c1C(F)(F)F (single isomer, unassigned) [Example 232]	–	–	0.3 to 3 nM	< 0.3 nM
Cc1cc(N)cc(-c2nc3c4c(nc(OCC5(C)CC(F)CN(C6CCOCC6)C5)nc4c2F)N2C[C@H]4CC[C@H](N4)[C@H]2CCO3)c1C(F)(F)F (single isomer, unassigned) [Example 233]	–	–	3 to 1000 nM	0.3 to 3 nM
Cc1cc(N)cc(-c2nc3c4c(nc(OCC5(C)CC(F)CN(C6CCOCC6)C5)nc4c2F)N2C[C@H]4CC[C@H](N4)[C@H]2CCO3)c1C(F)(F)F (single isomer, unassigned) [Example 234]	–	–	3 to 1000 nM	0.3 to 3 nM
Cc1cc(N)cc(-c2nc3c4c(nc(OCC5(C)CC(F)CN(C6CCOCC6)C5)nc4c2F)N2C[C@H]4CC[C@H](N4)[C@H]2CCO3)c1C(F)(F)F (single isomer, unassigned) [Example 235]	–	–	3 to 1000 nM	0.3 to 3 nM
Cc1cc(N)cc(-c2nc3c4c(nc(OCC5(C)CN(C)CC/C5=C\F)nc4c2F)N2C[C@H]4CC[C@H](N4)[C@H]2CCO3)c1C(F)(F)F (single isomer, unassigned) [Example 236]	–	–	3 to 1000 nM	< 0.3 nM
Cc1cc(N)cc(-c2nc3c4c(nc(OCC5(C)CN(CC6CC6)CC/C5=C\F)nc4c2F)N2C[C@H]4CC[C@H](N4)[C@H]2CCO3)c1C(F)(F)F (single isomer, unassigned) [Example 238]	–	–	3 to 1000 nM	< 0.3 nM
[2H]C([2H])([2H])N1CCC(C(F)F)C(C)(C([2H])([2H])Oc2nc3c4c(nc(-c5cc(N)cc(C)c5C(F)(F)F)c(F)c4n2)OCC[C@@H]2[C@@H]4CC[C@H](CN32)N4)C1 (single isomer, unassigned) [Example 240]	–	–	3 to 1000 nM	0.3 to 3 nM
[2H]C([2H])([2H])N1CCC(C(F)F)C(C)(C([2H])([2H])Oc2nc3c4c(nc(-c5cc(N)cc(C)c5C(F)(F)F)c(F)c4n2)OCC[C@@H]2[C@@H]4CC[C@H](CN32)N4)C1 (single isomer, unassigned) [Example 241]	–	–	0.3 to 3 nM	< 0.3 nM
[2H]C([2H])([2H])N1CC/C(=C\F)C(C)(C([2H])([2H])Oc2nc3c4c(nc(-c5cc(N)cc(C)c5C(F)(F)F)c(F)c4n2)OCC[C@@H]2[C@@H]4CC[C@H](CN32)N4)C1 (single isomer, unassigned) [Example 242]	–	–	3 to 1000 nM	< 0.3 nM
Cc1cc(N)cc(-c2nc3c4c(nc(OCC5(C)CN(C)CCC5C(F)F)nc4c2F)N2C[C@H]4CC[C@H](N4)[C@H]2CCO3)c1C(F)(F)F (single isomer, unassigned) [Example 244]	–	–	3 to 1000 nM	0.3 to 3 nM
Cc1cc(N)cc(-c2nc3c4c(nc(OCC5(C)CN(C)CCC5C(F)F)nc4c2F)N2C[C@H]4CC[C@H](N4)[C@H]2CCO3)c1C(F)(F)F (single isomer, unassigned) [Example 245]	–	–	0.3 to 3 nM	< 0.3 nM
[2H]C([2H])([2H])N1CCC(C(F)F)C(C)(C([2H])([2H])Oc2nc3c4c(nc(-c5cc(N)cc(Cl)c5C(F)(F)F)c(F)c4n2)OCC[C@@H]2[C@@H]4CC[C@H](CN32)N4)C1 (single isomer, unassigned) [Example 246]	–	–	3 to 1000 nM	0.3 to 3 nM
[2H]C([2H])([2H])N1CCC(C(F)F)C(C)(C([2H])([2H])Oc2nc3c4c(nc(-c5cc(N)cc(Cl)c5C(F)(F)F)c(F)c4n2)OCC[C@@H]2[C@@H]4CC[C@H](CN32)N4)C1 (single isomer, unassigned) [Example 247]	–	–	0.3 to 3 nM	< 0.3 nM
Cc1cc(N)cc(-c2nc3c4c(nc(OC[C@]5(CN(C)C)CC5(F)F)nc4c2F)N2C[C@H]4CC[C@H](N4)[C@H]2CC(C)O3)c1C(F)(F)F (single isomer, unassigned) [Example 248]	–	–	0.3 to 3 nM	< 0.3 nM
Cc1cc(N)cc(-c2nc3c4c(nc(OCC5(CN6C[C@H](O)[C@@H](F)C6)CC5)nc4c2F)N2C[C@H]4CC[C@H](N4)[C@H]2CCO3)c1C(F)(F)F (stereo in doubt) [Example 94, trans-1-((1-((((6aR, 7S,10R)-2-(5-amino-3-methyl-2-(trifluoromethyl)phenyl)-1-fluoro-5,6,6a,7,8,9,10,11-octahydro-4-oxa-3,11a,12,14,15-pentaaza-7,10-methanocyclohepta [4,5]cycloocta[1,2,3-de]naphthalen-13-yl)oxy)methyl)cyclopropyl)methyl)-4-fluoropyrrolidin-3-ol formate]	–	–	3 to 1000 nM	< 0.3 nM
